The pEC50 is the EC50 on a negative log10 scale, so that one unit is a factor of ten.

pEC50: −log10 of the molar value.

Results on 46 compounds are retold here after patent publication US8293729B2 (Boehringer Ingelheim International GmbH, priority 2009, dated 2012).

In the first assay the target is T1, human GPR119 receptor (Homo sapiens, UniProt Q8TDV5, S329A/T327A).
T1 construct: N-terminal leader […]; expressed in transfected cells
T1 sequence (Q8TDV5 with tags, fused parts or gaps T327A/S329A): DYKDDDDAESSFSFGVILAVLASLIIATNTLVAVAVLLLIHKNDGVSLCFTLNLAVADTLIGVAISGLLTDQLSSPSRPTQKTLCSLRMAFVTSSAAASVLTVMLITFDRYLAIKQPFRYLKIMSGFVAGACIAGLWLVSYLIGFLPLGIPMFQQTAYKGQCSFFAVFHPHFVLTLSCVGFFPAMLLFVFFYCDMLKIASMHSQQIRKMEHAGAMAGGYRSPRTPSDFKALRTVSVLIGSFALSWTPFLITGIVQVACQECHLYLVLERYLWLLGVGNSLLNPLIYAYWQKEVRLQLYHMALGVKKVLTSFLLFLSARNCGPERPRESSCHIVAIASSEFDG
As to the kind of experiment: cAMP assay (LANCE cAMP-384) in HEK293 cells stably expressing mutant human GPR119 receptor. The assay is classed as cell-based. Conditions: HEK293, 20 min; 10 μM; the 28th table; read-out: stimulation in % at 10 μM. Summed up:
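HEK293 cells stably expressing human GPR119 (T327A/S329A, modified N-terminus), 1000 cells/well, exposed to compound for 20 min at 37° C. cAMP quantified by LANCE TR-FRET against a standard curve; EC50 from 12 points, 30 μM to 100 pM, or % stimulation at 10 μM.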
(In general: Cyclic AMP is a second messenger, typically raised through Gs and lowered through Gi signalling.)
Consider `CC(C)OC(=O)N1CCC(ON=C2CCN(c3ncc(-n4cccn4)cn3)CC2)CC1` [Example 51-5], for which the activation at 10 µM was found to be 96%.

Consider `CC(C)OC(=O)N1CCC(ON=C2CCN(c3ncc(N4CCCC4=O)cn3)CC2)CC1` [Example 51-6], for which the activation at 10 µM stood at 98%.

Still in this assay, the particulars now being: HEK293, 20 min; 10 μM; the 30th table; read-out: stimulation in % at 10 μM.
For `CC(C)OC(=O)N1CCC(ON=C2CCN(c3ncc(CN4CCCC4=O)cc3F)CC2)CC1` [Example 54-4], the activation at 10 µM turned out to be 93%. For `Cc1nnn(Cc2cnc(N3CCC(=NOC4CCN(C(=O)OC(C)C)CC4)CC3)c(F)c2)n1` [Example 54-5], the activation at 10 µM was found to be 75%.

Still in this assay, the particulars now being: cAMP accumulation, HEK293 cells stably expressing mutant human GPR119; read-out: EC50.
In the case of `CC(C)OC(=O)N1CCC(ON=C2CCN(c3cc(F)c(S(=O)(=O)C4CC4)cc3F)CC2)CC1` [Example 47-1, 4-[1-(4-Cyclopropanesulfonyl-2,5-difluoro-phenyl)-piperidin-4-ylideneaminooxy]-piperidine-1-carboxylic acid isopropyl ester], the pEC50 was 7.37. Regarding `COCc1cc(F)c(N2CCC(=NOC3CCN(C(=O)OC(C)C)CC3)CC2)cc1F` [Example 49-1, 4-[1-(2,5-Difluoro-4-methoxymethyl-phenyl)-piperidin-4-ylideneaminooxy]-piperidine-1-carboxylic acid isopropyl ester], the pEC50 was 6.58.

For `CC(C)OC(=O)N1CCC(ON=C2CCN(c3cc(F)c(C(C)O)cc3F)CC2)CC1` (stereo not shown) [Example 50-1, 4-{1-[2,5-Difluoro-4-(1-hydroxy-ethyl)-phenyl]-piperidin-4-ylideneaminooxy}-piperidine-1-carboxylic acid isopropyl ester], the pEC50 is 7.32. Take `CC(C)OC(=O)N1CCC(ON=C2CCN(c3ncc(CO)cc3F)CC2)CC1` [Example 53-1, 4-(3′-Fluoro-5′-hydroxymethyl-2,3,5,6-tetrahydro-[1,2′]bipyridinyl-4-ylideneaminooxy)-piperidine-1-carboxylic acid isopropyl ester]: the pEC50 is 6.65. Turning to `Cc1nc(N2CCC(=NOC3CCN(C(=O)OC(C)C)CC3)CC2)c(F)cc1CO` [Example 55-1, 4-(3′-Fluoro-5′-hydroxymethyl-6′-methyl-2,3,5,6-tetrahydro-[1,2′]bipyridinyl-4-ylideneaminooxy)-piperidine-1-carboxylic acid isopropyl ester], the pEC50 was 6.69. `CC(C)OC(=O)N1CCC(ON=C2CCN(c3nc(Cl)c(CO)nc3Cl)CC2)CC1` [Example 56-1, 4-[1-(3,6-Dichloro-5-hydroxymethyl-pyrazin-2-yl)-piperidin-4-ylideneaminooxy]-piperidine-1-carboxylic acid isopropyl ester]: the negative-log EC50 (pEC50) was 7.46. Turning to `CC(C)OC(=O)N1CCC(ON=C2CCN(c3ncc4c(n3)CCN(S(C)(=O)=O)C4)CC2)CC1` [Example 59b, 4-[1-(6-Methanesulfonyl-5,6,7,8-tetrahydro-pyrido[4,3-d]pyrimidin-2-yl)-piperidin-4-ylideneaminooxy]-piperidine-1-carboxylic acid isopropyl ester], the negative-log EC50 (pEC50) is 6.48.

Staying with this assay, now noted: the 27th table; read-out: EC50.
As to `CC(C)OC(=O)N1CCC(ON=C2CCN(c3cc(F)c(CO)cc3F)CC2)CC1` [Example 48-1, 4-[1-(2,5-Difluoro-4-hydroxymethyl-phenyl)-piperidin-4-ylideneaminooxy]-piperidine-1-carboxylic acid isopropyl ester], the pEC50 is 8.05. As for `[2H]C([2H])(O)c1cc(F)c(N2CCC(=NOC3CCN(C(=O)OC(C)C)CC3)CC2)cc1F` [Example 48-2], the pEC50 is 7.74.

The assay is the same for the next values; noted with them: the 28th table; read-out: EC50.
In the case of `CC(C)OC(=O)N1CCC(ON=C2CCN(c3ncc(-n4cncn4)cc3F)CC2)CC1` [Example 51-1, 4-(3′-Fluoro-5′-[1,2,4]triazol-1-yl-2,3,5,6-tetrahydro-[1,2]bipyridinyl-4-ylideneaminooxy)-piperidine-1-carboxylic acid isopropyl ester], the pEC50 was 6.49. Turning to `CC(C)OC(=O)N1CCC(ON=C2CCN(c3ncc(-n4cccn4)cc3F)CC2)CC1` [Example 51-2], the pEC50 was 6.25. As for `CC(C)OC(=O)N1CCC(ON=C2CCN(c3ncc(N4CCCC4=O)cc3F)CC2)CC1` [Example 51-3], the pEC50 was 6.40. Regarding `CC(C)OC(=O)N1CCC(ON=C2CCN(c3ncc(-n4cncn4)cn3)CC2)CC1` [Example 51-4], the pEC50 is 6.13.

The assay is the same for the next values; noted with them: the 29th table; read-out: EC50.
As to `CC(C)OC(=O)N1CCC(ON=C2CCN(c3ccc(CO)c(F)c3)CC2)CC1` [Example 52-1, 4-[1-(3-Fluoro-4-hydroxymethyl-phenyl)-piperidin-4-ylideneaminooxy]-piperidine-1-carboxylic acid isopropyl ester], the pEC50 was under 5.00. In the case of `CC(C)OC(=O)N1CCC(ON=C2CCN(c3ccc(CO)cc3F)CC2)CC1` [Example 52-3], the pEC50 was 6.89.

The same assay, now with this note: the 30th table; read-out: EC50.
For the compound `Cc1cnn(Cc2cnc(N3CCC(=NOC4CCN(C(=O)OC(C)C)CC4)CC3)c(F)c2)c1` [Example 54-1, 4-[3′-Fluoro-5′-(4-methyl-pyrazol-1-ylmethyl)-2,3,5,6-tetrahydro-[1,2]bipyridinyl-4-ylideneaminooxy]-piperidine-1-carboxylic acid isopropyl ester], the pEC50 was 6.35. `CC(C)OC(=O)N1CCC(ON=C2CCN(c3ncc(Cn4ccnn4)cc3F)CC2)CC1` [Example 54-2]: the pEC50 is 5.98.

As for `CC(C)OC(=O)N1CCC(ON=C2CCN(c3ncc(Cn4nccn4)cc3F)CC2)CC1` [Example 54-3], the pEC50 is 6.12. As to `Cc1nnnn1Cc1cnc(N2CCC(=NOC3CCN(C(=O)OC(C)C)CC3)CC2)c(F)c1` [Example 54-6], the pEC50 is 5.94. `CC(C)OC(=O)N1CCC(ON=C2CCN(c3ncc(CS(C)(=O)=O)cc3F)CC2)CC1` [Example 54-7]: the pEC50 was 6.32.

The assay is the same for the next values; noted with them: the 31st table; read-out: EC50.
On to `CC(C)OC(=O)N1CCC(ON=C2CN(c3ccc(S(C)(=O)=O)cc3F)C2)CC1` [Example 61-3], for which the pEC50 was 6.79.

The same assay, now with this note: the 32nd table; read-out: EC50.
For `CS(=O)(=O)c1ccc(N2CCC(=NOC3CCN(c4ccccn4)CC3)CC2)c(F)c1` [Example 63-1, 1-(2-Fluoro-4-methanesulfonyl-phenyl)-piperidin-4-one O-(3,4,5,6-tetrahydro-2H-[1,2′]bipyridinyl-4-yl)-oxime], the pEC50 was 6.34. Turning to `Cc1cccc(N2CCC(ON=C3CCN(c4ccc(S(C)(=O)=O)cc4F)CC3)CC2)n1` [Example 63-2], the pEC50 is 5.90. Consider `Cc1cccnc1N1CCC(ON=C2CCN(c3ccc(S(C)(=O)=O)cc3F)CC2)CC1` [Example 63-3], for which the pEC50 was under 5.00. Take `CS(=O)(=O)c1ccc(N2CCC(=NOC3CCN(c4ccncc4)CC3)CC2)c(F)c1` [Example 63-4]: the pEC50 is under 5.00. Regarding `CS(=O)(=O)c1ccc(N2CCC(=NOC3CCN(c4ccnc(Cl)n4)CC3)CC2)c(F)c1` [Example 63-5], the pEC50 is under 5.00.

`CS(=O)(=O)c1ccc(N2CCC(=NOC3CCN(c4nccc(Cl)n4)CC3)CC2)c(F)c1` [Example 63-6]: the pEC50 is 5.87. On the same count and under the same terms, the value for `CS(=O)(=O)c1ccc(N2CCC(=NOC3CCN(c4nccs4)CC3)CC2)c(F)c1` [Example 63-7] was 6.35. `CS(=O)(=O)c1ccc(N2CCC(=NOC3CCN(c4ncccn4)CC3)CC2)c(F)c1` [Example 63-8]: the pEC50 is 6.62.

For `CS(=O)(=O)c1ccc(N2CCC(=NOC3CCN(c4cc(C(F)(F)F)ccn4)CC3)CC2)c(F)c1` [Example 63-10], the pEC50 was under 5.00. Turning to `CS(=O)(=O)c1ccc(N2CCC(=NOC3CCN(c4nccc(C(F)(F)F)n4)CC3)CC2)c(F)c1` [Example 63-11], the pEC50 is under 5.00. On to `Cc1cc(C(F)(F)F)cc(N2CCC(ON=C3CCN(c4ccc(S(C)(=O)=O)cc4F)CC3)CC2)n1` [Example 63-13], for which the pEC50 is 5.83. The same measure, in the same setting: next, `CS(=O)(=O)c1ccc(N2CCC(=NOC3CCN(c4ccc(C(F)(F)F)cn4)CC3)CC2)c(F)c1` [Example 63-14]: 6.31.

Take `Cc1ccnc(N2CCC(ON=C3CCN(c4ccc(S(C)(=O)=O)cc4F)CC3)CC2)n1` [Example 63-16]: the negative-log EC50 (pEC50) is 6.12.

Consider `Cc1csc(N2CCC(ON=C3CCN(c4ccc(S(C)(=O)=O)cc4F)CC3)CC2)n1` [Example 63-17], for which the pEC50 was under 5.00. On to `Cc1cc(C)nc(N2CCC(ON=C3CCN(c4ccc(S(C)(=O)=O)cc4F)CC3)CC2)n1` [Example 63-18], for which the pEC50 is under 5.00.

Take `CS(=O)(=O)c1ccc(N2CCC(=NOC3CCN(c4ncc(Br)cn4)CC3)CC2)c(F)c1` [Example 63-19]: the negative-log EC50 (pEC50) was 7.11. Consider `CS(=O)(=O)c1ccc(N2CCC(=NOC3CCN(c4ccc(Br)cn4)CC3)CC2)c(F)c1` [Example 63-20], for which the pEC50 is 6.41. On the same count and under the same terms, next, `COC(=O)c1cnc(N2CCC(ON=C3CCN(c4ccc(S(C)(=O)=O)cc4F)CC3)CC2)nc1` [Example 63-21]: 6.59.

Regarding `CS(=O)(=O)c1ccc(N2CCC(=NOC3CCN(c4ccc(S(C)(=O)=O)cc4F)CC3)CC2)c(F)c1` [Example 63-22], the pEC50 is 6.40. For the compound `CS(=O)(=O)c1ccc(N2CCC(=NOC3CCN(c4ccc(C#N)cn4)CC3)CC2)c(F)c1` [Example 63-23], the pEC50 was 5.89.

As for `CS(=O)(=O)c1ccc(N2CCC(=NOC3CCN(c4ccc(Cl)cn4)CC3)CC2)c(F)c1` [Example 63-24], the pEC50 is 6.01.
